Converted amounts (≈) assume the structure as drawn. Read-outs that look alike come from different tables or passages of the source.
How the values were obtained:
Format in all cases: cell-based
[1] = tested on: Clostridium difficile ATCC 700057; experiment: MIC against anaerobes, agar dilution (CLSI), reference strain; details: Clostridioides difficile, ATCC700057, 48 h, read-out: MIC, C. difficile ATCC 700057
[2] = tested on: strains of Bacteroides thetaiotaomicron; experiment: microbe, parasite or virus in culture
[3] = tested on: strains of Prevotella melaninogenica; experiment: MIC against anaerobes, agar dilution (CLSI), clinical isolates
[4] = tested on: Bacteroides thetaiotaomicron ATCC 29741; experiment: microbe, parasite or virus in culture; details: ATCC29741, 48 h, read-out: MIC, B. thetaiotaomicron ATCC
[5] = tested on: strains of Bacteroides fragilis; experiment: MIC against anaerobes, agar dilution (CLSI), clinical isolates
[6] = tested on: Bacteroides fragilis ATCC 25285; experiment: MIC against anaerobes, agar dilution (CLSI), reference strain; details: ATCC25285, 48 h, read-out: MIC, B. fragilis ATCC 25285
[7] = tested on: strains of Peptostreptococcus anaerobius; experiment: MIC against anaerobes, agar dilution (CLSI), clinical isolates
[8] = tested on: strains of Prevotella bivia; experiment: as above

Compound: CN[C@H](CC(C)C)C(=O)N[C@H]1C(=O)N[C@@H](CC(N)=O)C(=O)N[C@H]2C(=O)N[C@H]3C(=O)N[C@H](C(=O)N[C@H](C(=O)O)c4cc(O)cc(O)c4-c4cc3ccc4O)[C@H](O)c3ccc(c(Cl)c3)Oc3cc2cc(c3O[C@@H]2O[C@H](CO)[C@@H](O)[C@H](O)[C@H]2O[C@H]2C[C@](C)(N)[C@H](O)[C@H](C)O2)Oc2ccc(cc2Cl)[C@H]1O [VAN, vancomycin, reference compound]
- MIC [1]: 1 to 4 µg/mL (≈ 0.69 to 2.76 µM)
- MIC ([2]; Bacteroides thetaiotaomicron strain 1, read-out: MIC): 16 to 64 µg/mL (≈ 11 to 44.2 µM)
- MIC ([2]; Bacteroides thetaiotaomicron strain 2, read-out: MIC): 16 to 64 µg/mL (≈ 11 to 44.2 µM)
- MIC ([2]; Bacteroides thetaiotaomicron strain 3, read-out: MIC): 16 to 64 µg/mL (≈ 11 to 44.2 µM)
- MIC ([2]; Bacteroides thetaiotaomicron strain 4, read-out: MIC): 16 to 64 µg/mL (≈ 11 to 44.2 µM)
- MIC ([2]; Bacteroides thetaiotaomicron strain 5, read-out: MIC): 16 to 64 µg/mL (≈ 11 to 44.2 µM)
- MIC ([2]; Bacteroides thetaiotaomicron strain 6, read-out: MIC): 16 to 64 µg/mL (≈ 11 to 44.2 µM)
- MIC ([2]; Bacteroides thetaiotaomicron strain 7, read-out: MIC): 16 to 64 µg/mL (≈ 11 to 44.2 µM)
- MIC ([2]; Bacteroides thetaiotaomicron strain 8, read-out: MIC): 16 to 64 µg/mL (≈ 11 to 44.2 µM)
- MIC ([2]; Bacteroides thetaiotaomicron strain 9, read-out: MIC): < 1 µg/mL
- MIC ([2]; Bacteroides thetaiotaomicron strain 10, read-out: MIC): 16 to 64 µg/mL (≈ 11 to 44.2 µM)
- MIC ([2]; Bacteroides thetaiotaomicron strain 11, read-out: MIC): 16 to 64 µg/mL (≈ 11 to 44.2 µM)
- MIC ([3]; Prevotella melaninogenica strain 1): > 64 µg/mL
- MIC ([3]; Prevotella melaninogenica strain 2): 4 to 16 µg/mL (≈ 2.76 to 11 µM)
- MIC ([3]; Prevotella melaninogenica strain 3): > 64 µg/mL
- MIC ([3]; Prevotella melaninogenica strain 4): > 64 µg/mL
- MIC ([3]; Prevotella melaninogenica strain 5): 16 to 64 µg/mL (≈ 11 to 44.2 µM)
- MIC ([3]; Prevotella melaninogenica strain 6): > 64 µg/mL
- MIC ([3]; Prevotella melaninogenica strain 7): 16 to 64 µg/mL (≈ 11 to 44.2 µM)
- MIC ([3]; Prevotella melaninogenica strain 8): 4 to 16 µg/mL (≈ 2.76 to 11 µM)
- MIC ([3]; Prevotella melaninogenica strain 9): 4 to 16 µg/mL (≈ 2.76 to 11 µM)
- MIC ([3]; Prevotella melaninogenica strain 10): > 64 µg/mL
- MIC ([3]; Prevotella melaninogenica strain 11): > 64 µg/mL
- MIC [4]: 16 to 64 µg/mL (≈ 11 to 44.2 µM)
- MIC ([5]; Bacteroides fragilis strain 1): 16 to 64 µg/mL (≈ 11 to 44.2 µM)
- MIC ([5]; Bacteroides fragilis strain 2): 16 to 64 µg/mL (≈ 11 to 44.2 µM)
- MIC ([5]; Bacteroides fragilis strain 3): 4 to 16 µg/mL (≈ 2.76 to 11 µM)
- MIC ([5]; Bacteroides fragilis strain 4): 16 to 64 µg/mL (≈ 11 to 44.2 µM)
- MIC ([5]; Bacteroides fragilis strain 5): 16 to 64 µg/mL (≈ 11 to 44.2 µM)
- MIC ([5]; Bacteroides fragilis strain 6): 4 to 16 µg/mL (≈ 2.76 to 11 µM)
- MIC ([5]; Bacteroides fragilis strain 7): 4 to 16 µg/mL (≈ 2.76 to 11 µM)
- MIC ([5]; Bacteroides fragilis strain 8): 16 to 64 µg/mL (≈ 11 to 44.2 µM)
- MIC ([5]; Bacteroides fragilis strain 9): 4 to 16 µg/mL (≈ 2.76 to 11 µM)
- MIC ([5]; Bacteroides fragilis strain 10): 16 to 64 µg/mL (≈ 11 to 44.2 µM)
- MIC ([5]; Bacteroides fragilis strain 11): 16 to 64 µg/mL (≈ 11 to 44.2 µM)
- MIC ([5]; Bacteroides fragilis strain 12): 16 to 64 µg/mL (≈ 11 to 44.2 µM)
- MIC [6]: 16 to 64 µg/mL (≈ 11 to 44.2 µM)
- MIC ([7]; Peptostreptococcus anaerobius strain 1): < 1 µg/mL
- MIC ([7]; Peptostreptococcus anaerobius strain 2): < 1 µg/mL
- MIC ([7]; Peptostreptococcus anaerobius strain 3): < 1 µg/mL
- MIC ([7]; Peptostreptococcus anaerobius strain 4): > 64 µg/mL
- MIC ([7]; Peptostreptococcus anaerobius strain 5): < 1 µg/mL
- MIC ([7]; Peptostreptococcus anaerobius strain 6): < 1 µg/mL
- MIC ([7]; Peptostreptococcus anaerobius strain 7): < 1 µg/mL
- MIC ([7]; Peptostreptococcus anaerobius strain 8): < 1 µg/mL
- MIC ([7]; Peptostreptococcus anaerobius strain 9): < 1 µg/mL
- MIC ([7]; Peptostreptococcus anaerobius strain 10): < 1 µg/mL
- MIC ([8]; Prevotella bivia strain 1): > 64 µg/mL
- MIC ([8]; Prevotella bivia strain 2): > 64 µg/mL
- MIC ([8]; Prevotella bivia strain 3): 16 to 64 µg/mL (≈ 11 to 44.2 µM)
- MIC ([8]; Prevotella bivia strain 4): > 64 µg/mL
- MIC ([8]; Prevotella bivia strain 5): > 64 µg/mL
- MIC ([8]; Prevotella bivia strain 6): > 64 µg/mL
